Values after ≈ are worked out from the molar mass of the structure shown.
Test system: not listed separately
Assay: (§1) In vitro flocculation inhibitory ability was determined towards Yeast cell wall lectin (KbWCL)
Type: functional, Saccharomyces cerevisiae
Settings: not given

SMILES | MIC [µM]
O=[N+]([O-])c1ccc(O[C@H]2O[C@H](CO)[C@@H](O)[C@H](O)[C@H]2O)cc1 (stereo in doubt; form 2) | 830 (≈ 250 µg/mL)
O=[N+]([O-])c1ccc(O[C@H]2O[C@H](CO)[C@@H](O)[C@H](O)[C@H]2O)cc1 (stereo in doubt; form 1) | 400 (≈ 121 µg/mL)

The remaining lines, values ahead:

MIC [µM] | SMILES
700 | [Na+].[O-]CC1OC(SCC2OC3OC4C(CSC5OC(CO)C(O)C(O)C5O)OC(OC5C(CSC6OC(CO)C(O)C(O)C6O)OC(OC6C(CSC7OC(CO)C(O)C(O)C7O)OC(OC7C(CSC8OC(CO)C(O)C(O)C8O)OC(OC8C(CSC9OC(CO)C(O)C(O)C9O)OC(OC9C(CSC%10OC(CO)C(O)C(O)C%10O)OC(OC2C(O)C3O)C(O)C9O)C(O)C8O)C(O)C7O)C(O)C6O)C(O)C5O)C(O)C4O)C(O)C(O)C1O (stereo in doubt; 6)
1660 | [Na+].[O-]CC1OC(SCC2OC3OC4C(CSC5OC(CO)C(O)C(O)C5O)OC(OC5C(CSC6OC(CO)C(O)C(O)C6O)OC(OC6C(CSC7OC(CO)C(O)C(O)C7O)OC(OC7C(CSC8OC(CO)C(O)C(O)C8O)OC(OC8C(CSC9OC(CO)C(O)C(O)C9O)OC(OC9C(CSC%10OC(CO)C(O)C(O)C%10O)OC(OC2C(O)C3O)C(O)C9O)C(O)C8O)C(O)C7O)C(O)C6O)C(O)C5O)C(O)C4O)C(O)C(O)C1O (stereo in doubt; 5)

Same assay, conditions: Saccharomyces cerevisiae; read-out: MIC

SMILES | MIC [µM]
C[C@H]1OC(O)[C@H](O)[C@@H](O)[C@H]1O (stereo not given in full) | 3500 (≈ 575 µg/mL)
OC[C@H]1O[C@H](OC[C@H]2O[C@H](O[C@]3(CO)O[C@H](CO)[C@@H](O)[C@@H]3O)[C@H](O)[C@@H](O)[C@@H]2O)[C@H](O)[C@@H](O)[C@H]1O [RAFFINOSE] | 1200 (≈ 605 µg/mL)
OC[C@H]1O[C@H](OCC2O[C@@H](O)[C@H](O)[C@@H](O)[C@@H]2O)[C@H](O)[C@@H](O)[C@H]1O (stereo not given in full) [MELIBIOSE] | 600 (≈ 205 µg/mL)

Second part, the compound after the results:

MIC [µM] | SMILES
3750 (≈ 4920 µg/mL) | OC[C@@H]1O[C@@H](SC[C@@H]2O[C@@H]3O[C@H]4[C@H](O)[C@H](O)[C@@H](O[C@H]5[C@H](O)[C@H](O)[C@@H](O[C@H]6[C@H](O)[C@H](O)[C@@H](O[C@H]7[C@H](O)[C@H](O)[C@@H](O[C@H]8[C@H](O)[C@H](O)[C@@H](O[C@H]9[C@H](O)[C@H](O)[C@@H](O[C@H]2[C@H](O)[C@@H]3O)O[C@H]9CO)O[C@H]8CO)O[C@H]7CO)O[C@H]6CO)O[C@H]5CO)O[C@H]4CO)[C@@H](O)[C@@H](O)[C@@H]1O
1700 (≈ 2490 µg/mL) | O=C(CCCCCCCC(=O)N[C@@H]1O[C@@H](CO)[C@H](O)[C@H](O)[C@@H]1O)NC[C@@H]1O[C@@H]2O[C@H]3[C@H](O)[C@H](O)[C@@H](O[C@H]4[C@H](O)[C@H](O)[C@@H](O[C@H]5[C@H](O)[C@H](O)[C@@H](O[C@H]6[C@H](O)[C@H](O)[C@@H](O[C@H]7[C@H](O)[C@H](O)[C@@H](O[C@H]8[C@H](O)[C@H](O)[C@@H](O[C@H]1[C@H](O)[C@@H]2O)O[C@H]8CO)O[C@H]7CO)O[C@H]6CO)O[C@H]5CO)O[C@H]4CO)O[C@H]3CO
2000 (≈ 3190 µg/mL) | O=C(NC[C@@H]1O[C@@H]2O[C@H]3[C@H](O)[C@H](O)[C@@H](O[C@H]4[C@H](O)[C@H](O)[C@@H](O[C@H]5[C@H](O)[C@H](O)[C@@H](O[C@H]6[C@H](O)[C@H](O)[C@@H](O[C@H]7[C@H](O)[C@H](O)[C@@H](O[C@H]8[C@H](O)[C@H](O)[C@@H](O[C@H]1[C@H](O)[C@@H]2O)O[C@H]8CO)O[C@H]7CO)O[C@H]6CO)O[C@H]5CO)O[C@H]4CO)O[C@H]3CO)C(CS[C@@H]1O[C@@H](CO)[C@H](O)[C@H](O)[C@@H]1O)CS[C@@H]1O[C@@H](CO)[C@H](O)[C@H](O)[C@@H]1O
410 (≈ 1150 µg/mL) | OCC1OC(SCCSCC2OC3OC4C(CSCCSC5OC(CO)C(O)C(O)C5O)OC(OC5C(CSCCSC6OC(CO)C(O)C(O)C6O)OC(OC6C(CSCCSC7OC(CO)C(O)C(O)C7O)OC(OC7C(CSCCSC8OC(CO)C(O)C(O)C8O)OC(OC8C(CSCCSC9OC(CO)C(O)C(O)C9O)OC(OC9C(CSCCSC%10OC(CO)C(O)C(O)C%10O)OC(OC2C(O)C3O)C(O)C9O)C(O)C8O)C(O)C7O)C(O)C6O)C(O)C5O)C(O)C4O)C(O)C(O)C1O (stereo not given)

Test system: Saccharomyces cerevisiae
Assay: as §1
Type: functional
Settings: not given

MIC | SMILES
No inhibition | OC[C@H]1OC(O)[C@H](O)[C@@H](O)[C@@H]1O (stereo not given in full)
No inhibition | OC1OC[C@@H](O)[C@@H](O)[C@@H]1O (stereo not given in full)
No inhibition | OC[C@H]1O[C@@H]2O[C@H]3[C@H](O)[C@@H](O)[C@@H](O[C@H]4[C@H](O)[C@@H](O)[C@@H](O[C@H]5[C@H](O)[C@@H](O)[C@@H](O[C@H]6[C@H](O)[C@@H](O)[C@@H](O[C@H]7[C@H](O)[C@@H](O)[C@@H](O[C@H]1[C@H](O)[C@H]2O)O[C@@H]7CO)O[C@@H]6CO)O[C@@H]5CO)O[C@@H]4CO)O[C@@H]3CO
No inhibition | OC[C@H]1O[C@@H]2O[C@H]3[C@H](O)[C@@H](O)[C@@H](O[C@H]4[C@H](O)[C@@H](O)[C@@H](O[C@H]5[C@H](O)[C@@H](O)[C@@H](O[C@H]6[C@H](O)[C@@H](O)[C@@H](O[C@H]7[C@H](O)[C@@H](O)[C@@H](O[C@H]8[C@H](O)[C@@H](O)[C@@H](O[C@H]1[C@H](O)[C@H]2O)O[C@@H]8CO)O[C@@H]7CO)O[C@@H]6CO)O[C@@H]5CO)O[C@@H]4CO)O[C@@H]3CO

Source: ChEMBL document CHEMBL1127717, “Synthesis of new oligosaccharidyl-thio--cyclodextrins (CDS): a novel family of potent drug-targetting vectors” (1994)
